# According to patent US20240050033A1, “PERFUSION DEVICE FOR EVALUATING BLOOD PARAMETERS” (SEDICIDODICI S.R.L., priority 2020, published 2024):
# Key:
# fibrin = experiment: ex-vivo dynamic evaluation of fibrin formation in a whole-blood sample flowing through a perfusion chamber (fluorescence imaging); format: cell-based, human; settings: mean value, blood of subjects under the therapy; 8-bit acquisition system
# Excerpt: (§1) The present invention firstly relates to a method for the dynamic “ex-vivo” evaluation of the coagulation process in a patient's blood sample, characterized in that such a method comprises the simultaneous determination on the same blood sample of both the time, quantity and speed of platelet aggregate formation and of fibrin formation time, quantity and speed.
# According to some embodiments, the method of the invention comprises the following steps: • a) providing a whole-blood sample taken from a subject and added with an anti-coagulant substance; • b) treating the blood sample of step a) with a solution consisting of fluorescent probes for marking platelets and fibrin capable of binding more or less specifically to platelets and fibrin and emitting fluorescent light on two different emission frequencies and of a recalcification solution of the blood sample. The two aforesaid solutions can also be combined in a single solution or single reagent; • c) introducing said recalcified blood sample into an analytical device having at least one perfusion chamber, in which at least one wall consists of a transparent material comprising a cytoadhesive substance, the blood sample being made to flow into the perfusion chamber in known and measurable flow conditions; • d) during the blood flow in the perfusion chamber, alternately acquiring at least two series of fluorescence images, so that at least one series of fluorescence images is acquired at an emission wavelength characteristic of the fluorescent probe for platelets and at least one other series of fluorescence images is acquired at another emission wavelength characteristic of the fluorescent probe for fibrin; • e) binarizing the pixels of the acquired images for the platelets and for the fibrin, so as to generate a first curve of area covered by illuminated pixels vs. time (t) for the formation of a platelet aggregate and a second curve of area covered by illuminated pixels vs. time for the fibrin formation; • f) generating a first curve of average fluorescence intensity vs. time for the formation of the platelet aggregate and a second curve of average fluorescence intensity vs. time for the fibrin formation; • in which the method comprises at least one of the following steps: • g) generating a first integrated density curve defined as the product of area and fluorescence intensity vs. time for the formation of the platelet aggregate and a second integrated density curve defined as the product of area and fluorescence intensity vs. time for the fibrin formation; • h) generating a curve of particle number vs. time, in which the number of particles is given by the number of platelet aggregates consisting of more than 2 illuminated pixels; • i) generating a curve of particle size vs. time, in which the particle size is given by the average size of the platelet aggregates consisting of more than 2 illuminated pixels; • j) generating values of maximum slope, defined as the relative maximum points of the first derivative function calculated for the curves of the parameter obtained in said at least one step e), f), g), h) and i); • k) generating values of maximum acceleration, defined as the relative maximum points of the second derivative function calculated for the curves of the parameter obtained in said at least one step e), f), g), h) and i); • l) generating values of F/P ratio, defined as the ratio of the AUCs of fibrin to the AUCs of the platelets of the parameter obtained in said at least one step e), f) and g); • the method further comprising the steps of: • m) generating a lag time value representing the fibrin formation time defined as the time corresponding to the first occurrence of five consecutive images in which the value of the measured area related to fibrin is >1% of the maximum peak value of the curve; • n) generating AUC (Area Under the Curve) values given by the area under the curve of each parameter obtained in steps e), f), g), h) and i). […]
# platelets = experiment: ex-vivo dynamic evaluation of platelet aggregate formation in a whole-blood sample flowing through a perfusion chamber (fluorescence imaging); format: cell-based, human; settings: mean value, blood of subjects under the therapy; 8-bit acquisition system
# Excerpt: as §1
# According to some embodiments, the method of the invention comprises the following steps: • a) providing a whole-blood sample taken from a subject and added with an anti-coagulant substance; • b) treating the blood sample of step a) with a solution consisting of fluorescent probes for marking platelets and fibrin capable of binding more or less specifically to platelets and fibrin and emitting fluorescent light on two different emission frequencies and of a recalcification solution of the blood sample. […]
smiles,measurement,setting,value
"CC(=O)Oc1ccccc1C(=O)O [ASA, acetylsalicylic acid]",F/P Area (AUC Area ratio of fibrin to platelets),fibrin,1.0
same,F/P ID (AUC ID ratio of fibrin to platelets),fibrin,2.2
same,F/P MGV (AUC MGV ratio of fibrin to platelets),fibrin,1.2
same,Fibrin AUC Area (area under the curve of the area curve),fibrin,3.0 ×10^7
same,Fibrin AUC ID (area under the curve of the integrated density curve),fibrin,4.3 ×10^9
same,Fibrin AUC MGV (area under the curve of the fluorescence intensity curve),fibrin,2.0 ×10^4
same,Lag Time (fibrin formation time),fibrin,267.5 s
same,Platelets AUC Area (area under the curve of the area curve),platelets,3.4 ×10^7
same,Platelets AUC ID (area under the curve of the integrated density curve),platelets,3.0 ×10^9
same,Platelets AUC MGV (area under the curve of the fluorescence intensity curve),platelets,2.0 ×10^4
